{"source": "patent US6821980B1", "about": "“Substituted 5-benzyl-2,4-diaminopyrimidines” (Basilea Pharmaceutica AG, priority 1999, dated 2004)", "key": {"[1]": {"system": "Streptococcus pneumoniae 1/1", "assay": "MIC against Streptococcus pneumoniae 1/1", "assay_type": "cell-based", "details": "Table 2; Streptococcus pneumoniae 1/1, trimethoprim- and penicillin-resistant, serotype 6; clinical isolate; read-out: MIC Sp1/1"}, "[2]": {"system": "Staphylococcus aureus 101", "assay": "MIC against Staphylococcus aureus 101", "assay_type": "cell-based", "details": "Table 2; Staphylococcus aureus 101, MRSA- and trimethoprim-resistant; clinical isolate; read-out: MIC Sa101"}, "[3]": {"molecular_target": "purified DHFR of strain 157/4696 of Staphylococcus aureus (Staphylococcus aureus, UniProt P13955)", "sequence (P13955 whole entry)": "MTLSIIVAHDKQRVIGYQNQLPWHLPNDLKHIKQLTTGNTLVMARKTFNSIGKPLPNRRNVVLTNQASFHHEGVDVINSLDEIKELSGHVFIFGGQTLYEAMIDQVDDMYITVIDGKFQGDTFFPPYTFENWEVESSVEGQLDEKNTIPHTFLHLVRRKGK", "assay": "biochemical"}, "[4]": {"molecular_target": "T1, purified DHFR of strain Sp1/1 of Streptococcus pneumoniae (Streptococcus pneumoniae serotype 4, UniProt Q54801)", "T1 sequence (Q54801 1-168 I100L)": "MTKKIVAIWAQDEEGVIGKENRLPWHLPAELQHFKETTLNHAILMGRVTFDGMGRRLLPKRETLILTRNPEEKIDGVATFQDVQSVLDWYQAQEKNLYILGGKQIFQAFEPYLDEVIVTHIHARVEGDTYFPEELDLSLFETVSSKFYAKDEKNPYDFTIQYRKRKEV", "assay_type": "biochemical", "details": "Table 2; IC50 against purified DHFR of strain Sp1/1"}}, "data": [{"smiles": "CCOc1cc(Cc2cnc(N)nc2N)cc(OCC2CC2)c1-c1ccc(OS(C)(=O)=O)cc1", "note": "[Example 57-, Methanesulphonic acid 2′-cylopropylmethoxy-4′-(2,4-diamino-pyrimidin-5-ylmethyl)-6′-ethoxy-biphenyl-4-yl ester]", "values": [{"measurement": "MIC", "setting": "[1]", "result": 4, "unit": "µg/mL"}, {"measurement": "MIC", "setting": "[2]", "result": 8, "unit": "µg/mL"}, {"measurement": "IC50", "setting": "[3]", "result": 3600, "unit": "nM"}, {"measurement": "IC50", "setting": "[4]", "result": 30, "unit": "nM"}]}, {"smiles": "CCOc1cc(Cc2cnc(N)nc2N)cc(OS(=O)(=O)C(C)C)c1-c1ccc(OC(C)=O)cc1", "note": "[Example 58-, 4′-(2,4-Diamino-pyrimidin-5-ylmethyl)-6′-ethoxy-2′-(propane-2-sulphonyloxy)-biphenyl-4-yl acetate]", "values": [{"measurement": "MIC", "setting": "[1]", "result": 2, "unit": "µg/mL"}, {"measurement": "MIC", "setting": "[2]", "result": 2, "unit": "µg/mL"}, {"measurement": "IC50", "setting": "[3]", "result": 55, "unit": "nM"}, {"measurement": "IC50", "setting": "[4]", "result": 32, "unit": "nM"}]}, {"smiles": "CCOc1cc(Cc2cnc(N)nc2N)cc(OCC2CC2)c1-c1ccc(OCC#N)cc1", "note": "[Example 59-, [2′-Cycloproplmethoxy-4′-(2,4-diamino-pyrimidin-5-ylmethyl)-6′-ethoxy-biphenyl-4-yloxy]-acetonitrile]", "values": [{"measurement": "MIC", "setting": "[1]", "result": 2, "unit": "µg/mL"}, {"measurement": "MIC", "setting": "[2]", "result": 8, "unit": "µg/mL"}, {"measurement": "IC50", "setting": "[3]", "result": 1800, "unit": "nM"}, {"measurement": "IC50", "setting": "[4]", "result": 18, "unit": "nM"}]}, {"smiles": "CCOc1cc(Cc2cnc(N)nc2N)cc(OS(=O)(=O)N(C)C)c1-c1ccc(S(C)(=O)=O)cc1", "note": "[Example 60-, Dimethylsulphamic acid 4-(2,4-diamino-pyrimidin-5-ylmethyl)-6-ethoxy-4′-methanesulphonyl-biphenyl-2-yl ester]", "values": [{"measurement": "MIC", "setting": "[1]", "result": 8, "unit": "µg/mL"}, {"measurement": "MIC", "setting": "[2]", "result": 4, "unit": "µg/mL"}, {"measurement": "IC50", "setting": "[3]", "result": 280, "unit": "nM"}, {"measurement": "IC50", "setting": "[4]", "result": 88, "unit": "nM"}]}, {"smiles": "CCOc1cc(Cc2cnc(N)nc2N)cc(OS(=O)(=O)CC(C)C)c1-c1ccc(OCCO)cc1", "note": "[Example 61-a, 2-Methyl-propane-1-sulphonic acid 4-(2,4-diamino-pyrimidin-5-ylmethyl)-6-ethoxy-4′-(2-hydroxy-ethoxy)-biphenyl-2-yl ester]", "values": [{"measurement": "MIC", "setting": "[1]", "result": 0.5, "unit": "µg/mL"}, {"measurement": "MIC", "setting": "[2]", "result": 2, "unit": "µg/mL"}, {"measurement": "IC50", "setting": "[3]", "result": 550, "unit": "nM"}, {"measurement": "IC50", "setting": "[4]", "result": 1.8, "unit": "nM"}]}, {"smiles": "CCOc1cc(Cc2cnc(N)nc2N)cc(OS(=O)(=O)C(C)CC)c1-c1ccc(OCCO)cc1", "note": "(stereo not drawn) [Example 61-b]", "values": [{"measurement": "MIC", "setting": "[1]", "result": 1, "unit": "µg/mL"}, {"measurement": "MIC", "setting": "[2]", "result": 2, "unit": "µg/mL"}, {"measurement": "IC50", "setting": "[3]", "result": 210, "unit": "nM"}, {"measurement": "IC50", "setting": "[4]", "result": 11, "unit": "nM"}]}, {"smiles": "CCOc1cc(Cc2cnc(N)nc2N)cc(OS(=O)(=O)N(C)C)c1-c1ccc(OC(C)=O)cc1", "note": "[Example 62-, 4′-(2,4-Diamino-pyrimidin-5-ylmethyl)-2′-dimethylsulphamoylxy-6′-ethoxy-biphenyl-4-yl acetate]", "values": [{"measurement": "MIC", "setting": "[1]", "result": 2, "unit": "µg/mL"}, {"measurement": "MIC", "setting": "[2]", "result": 2, "unit": "µg/mL"}, {"measurement": "IC50", "setting": "[3]", "result": 330, "unit": "nM"}, {"measurement": "IC50", "setting": "[4]", "result": 7.9, "unit": "nM"}]}, {"smiles": "CCOc1cc(Cc2cnc(N)nc2N)cc(OS(=O)(=O)CC(C)C)c1-c1ccc(OCCOC)cc1", "note": "[Example 63-, 2-Methyl-propane-1-sulphonic acid 4-(2,4-diamino-pyrimidin-5-ylmethyA)-6-ethoxy-4′-(2-methox-ethoxy)-biphenyl-2-yl ester]", "values": [{"measurement": "MIC", "setting": "[1]", "result": 1, "unit": "µg/mL"}, {"measurement": "MIC", "setting": "[2]", "result": 4, "unit": "µg/mL"}, {"measurement": "IC50", "setting": "[3]", "result": 380, "unit": "nM"}, {"measurement": "IC50", "setting": "[4]", "result": 1.8, "unit": "nM"}]}, {"smiles": "CCOc1cc(Cc2cnc(N)nc2N)cc(OS(C)(=O)=O)c1-c1ccc(CN2CCOCC2)c(F)c1", "note": "[Example 64-a, Methanesulphonic acid 4-(2,4-diamino-pyrimidin-5-ylmethyl)-6-ethoxy-3′-fluoro-4′-morpholin-4-ylmethyl-biphenyl-2-yl ester]", "values": [{"measurement": "MIC", "setting": "[1]", "result": 4, "unit": "µg/mL"}, {"measurement": "MIC", "setting": "[2]", "result": 8, "unit": "µg/mL"}, {"measurement": "IC50", "setting": "[3]", "result": 1500, "unit": "nM"}, {"measurement": "IC50", "setting": "[4]", "result": 52, "unit": "nM"}]}, {"smiles": "CCOc1cc(Cc2cnc(N)nc2N)cc(OS(=O)(=O)N(C)C)c1-c1ccc(CN2CCOCC2)c(F)c1", "note": "[Example 64-b, Dimethylsulphamic acid 4-(2,4-diamino-pyrimidin-5-ylmethUl)-6-ethoxy-3′-fluoro-4′-morpholin-4-ylmethyl-biphenyl-2-yl ester]", "values": [{"measurement": "MIC", "setting": "[1]", "result": 2, "unit": "µg/mL"}, {"measurement": "MIC", "setting": "[2]", "result": 2, "unit": "µg/mL"}, {"measurement": "IC50", "setting": "[3]", "result": 300, "unit": "nM"}, {"measurement": "IC50", "setting": "[4]", "result": 27, "unit": "nM"}]}, {"smiles": "CCOc1cc(Cc2cnc(N)nc2N)cc(OS(=O)(=O)N(C)C)c1-c1ccc(CN2CCOCC2)cc1", "note": "[Example 65-, Dimethylsulphamic acid 4-(2,4-diamino-pyrimidin-5-ylmethyl)-6-ethoxy-4′-morpholin-4-ylmethyl-biphenyl-2-yl ester]", "values": [{"measurement": "MIC", "setting": "[1]", "result": 2, "unit": "µg/mL"}, {"measurement": "MIC", "setting": "[2]", "result": 2, "unit": "µg/mL"}, {"measurement": "IC50", "setting": "[3]", "result": 160, "unit": "nM"}, {"measurement": "IC50", "setting": "[4]", "result": 24, "unit": "nM"}]}, {"smiles": "CCOc1cc(Cc2cnc(N)nc2N)cc(OS(=O)(=O)N(C)C)c1-c1ccc(CN(C)CCF)cc1", "note": "[Example 66-, Dimethylsulphamic acid 4-(2,4-diamino-pyrimidin-5-ylmethyl)-6-ethoxy-4′-{[N-(2-fluoro-ethyl)-N-methyl-amino]-methyl}-binhenyl-2-yl ester]", "values": [{"measurement": "MIC", "setting": "[1]", "result": 4, "unit": "µg/mL"}, {"measurement": "MIC", "setting": "[2]", "result": 2, "unit": "µg/mL"}, {"measurement": "IC50", "setting": "[3]", "result": 170, "unit": "nM"}, {"measurement": "IC50", "setting": "[4]", "result": 52, "unit": "nM"}]}]}
